Measured values taken from PMC11466185, “Mechanisms and efficacy of small molecule latency-promoting agents to inhibit HIV reactivation ex vivo” (JCI Insight, 2024).

Test system: HIV transcripts (TAR, LLTR, Pol, PolyA, TatRev)
Assay: Baseline HIV transcription without activation, PBMCs from ART-suppressed PWH, 24 hours
Assay type: cell-based
Conditions: no activation; for LLTR HIV transcripts (DMSO = 100) / Pol HIV transcripts (DMSO = 100) / PolyA HIV transcripts (DMSO = 100) / Tat-Rev HIV transcripts (DMSO = 100) / PolyA/LLTR ratio (DMSO = 1) / TatRev/PolyA ratio (DMSO = 1) / TAR HIV transcripts (DMSO = 100) / LLTR/TAR ratio (DMSO = 1): ruxolitinib 4μM, dinaciclib 8nM, AZD4573 8nM, KRIBB11 2.5μM; for LLTR HIV transcripts (DMSO = 100) / Pol HIV transcripts (DMSO = 100) / PolyA HIV transcripts (DMSO = 100) / Tat-Rev HIV transcripts (DMSO = 100) / TAR HIV transcripts (DMSO = 100): pladienolide B 10nM; for PolyA/LLTR ratio (DMSO = 1) / TatRev/PolyA ratio (DMSO = 1) / LLTR/TAR ratio (DMSO = 1): pladienolide B; for HIV splicing (TatRev/PolyA) without activation: not statistically significant
Experimental: For a selection of the compounds, we evaluated the ability to reduce baseline HIV transcription without activation. PBMCs were cultured in the presence of individual drugs in DMSO or DMSO alone as a control and harvested after 24 hours. For each drug, we tested PBMCs from at least 3 PWH, as indicated in Supplemental Figure 5B. […] Likewise, pladienolide B appeared to reduce the level of multiply spliced transcripts (33%, Supplemental Figure 5, A and B).
PBMCs were isolated from fresh venous blood from 16 ART-suppressed HIV-infected study participants using Ficoll density gradient centrifugation. The cells were seeded at 6 × 10^6 cells/well and cultured with antiretrovirals (nevirapine and indinavir) to prevent new infection. On the next day, PBMCs were activated with anti-CD3/CD28–coated beads (Invitrogen) in the presence of 20 U/mL IL-2 and individual drugs in DMSO or DMSO alone as a control. Since we were limited in the PBMC yield per study participant, different study participants were used for different experiments (such as the initial screen, dose response, different time points, and studies in activated vs. unstimulated cells). In addition, the yields of PBMCs were sometimes insufficient to test all drugs for a given question or experiment.
Total cellular DNA and RNA were extracted in parallel using Trireagent (Molecular Research Center) according to the manufacturer’s instructions, except for study participants 2147 and 2461 (Figure 4), for whom DNA and RNA were extracted using the QIAGEN AllPrep DNA/RNA/miRNA Universal Kit with on-column DNase I treatment of the RNA and the manufacturer’s modification to enhance recovery of short transcripts. RNA and DNA concentrations were measured using UV spectrophotometry (NanoDrop One, Thermo Fisher Scientific). Total initiated HIV (TAR) transcripts were quantified by a 3-step polyadenylation RT-ddPCR as described previously ([8], [84]). HIV 5′ elongated (LLTR), midtranscribed (Pol), completed (PolyA), and multiply spliced (TatRev) transcripts were quantified by a 2-step RT-ddPCR as previously described ([8]). The levels of each HIV transcript were normalized to 1 μg of total cellular RNA and expressed as a percentage of the (activated) DMSO control. To quantify virion-associated RNA in supernatant, RNA was extracted from 400 μL supernatant using Trireagent-LS (Molecular Research Center) according to the manufacturer’s instructions. Levels of U3-polyadenylated HIV RNA were measured in the supernatant by RT-ddPCR, normalized to copies/mL, and expressed as a percentage of the activated DMSO. For measuring the HIV infection frequency at day 6, the HIV DNA U3-U5 LTR region was quantified by using ddPCR as described previously ([8]). HIV DNA copies were normalized to cell numbers according to the mass of DNA input per well (calculated from the DNA concentration and input volume) ([85]).
Figure S5. CDK-inhibitors appear to decrease baseline HIV splicing even in the absence of T cell activation. Each drug was tested in PBMCs from at least three ART-suppressed study participants and PBMCs were aliquoted into wells at 6x10^6 cells/well. The cells were cultured with antiretrovirals but without activation in the presence of individual drugs in (1 picture or pasted object on this page, not shown here)
DMSO or DMSO alone as control. After 24h, total RNA was extracted and the progression through different stages of HIV transcription was quantified by measuring the levels of initiated (TAR), 5’ elongated (LLTR), mid-transcribed/unspliced (Pol), completed (PolyA) and multiply spliced (TatRev) HIV transcripts. A-B) The levels of all HIV transcripts were quantified, normalized to 1 µg of total cellular RNA, and expressed as a percent of the DMSO control (% of DMSO). A) Medians are shown, as well as the values of the individual study participants in different colors. B) The medians from panel A) are presented. The effect of each drug on the different transcripts was studied in three to six study participants, as […]

[1] = participant 5557 (DMSO cell empty)

## CNc1ccc([N+](=O)[O-])c(Nc2ccc3[nH]ncc3c2)n1 [KRIBB11]
24 hours, at least 3 PWH
  HIV transcription levels in the absence of T cell activation (in words): little effect
Participant 156
  LLTR HIV transcripts (DMSO = 100): 90.95
  Pol HIV transcripts (DMSO = 100): 85.77
  PolyA HIV transcripts (DMSO = 100): 144.03
  Tat-Rev HIV transcripts (DMSO = 100): 735.63
  PolyA/LLTR ratio (DMSO = 1): 1.584
  TatRev/PolyA ratio (DMSO = 1): 5.108
Participant 163
  LLTR HIV transcripts (DMSO = 100): 72.79
  Pol HIV transcripts (DMSO = 100): 89.89
  PolyA HIV transcripts (DMSO = 100): 74.5
  Tat-Rev HIV transcripts (DMSO = 100): 0
  PolyA/LLTR ratio (DMSO = 1): 1.0234
  TatRev/PolyA ratio (DMSO = 1): 0
Participant 2027
  LLTR HIV transcripts (DMSO = 100): 71.57
  Pol HIV transcripts (DMSO = 100): 64.26
  PolyA HIV transcripts (DMSO = 100): 97.36
  TAR HIV transcripts (DMSO = 100): 144.19
  LLTR/TAR ratio (DMSO = 1): 0.4964
  PolyA/LLTR ratio (DMSO = 1): 1.36

## CC(=O)N[C@@H]1CCC[C@H](C(=O)Nc2cc(-c3cnn4c3CC(C)(C)C4)c(Cl)cn2)C1 [AZD4573]
24 hours
  5′ elongated HIV transcripts without activation compared to DMSO: did not reduce
  Completed HIV transcripts without activation compared to DMSO: did not reduce
  HIV splicing (TatRev/PolyA) without activation: severely reduce
24 hours, at least 3 PWH
  Multiply spliced HIV transcripts without activation, median relative to DMSO: 0%
Participant 156
  LLTR HIV transcripts (DMSO = 100): 37.81
  Pol HIV transcripts (DMSO = 100): 28.11
  PolyA HIV transcripts (DMSO = 100): 93.77
  Tat-Rev HIV transcripts (DMSO = 100): 0
  PolyA/LLTR ratio (DMSO = 1): 2.48
  TatRev/PolyA ratio (DMSO = 1): 0
Participant 163
  LLTR HIV transcripts (DMSO = 100): 69.35
  Pol HIV transcripts (DMSO = 100): 112.58
  PolyA HIV transcripts (DMSO = 100): 122.94
  Tat-Rev HIV transcripts (DMSO = 100): 0
  PolyA/LLTR ratio (DMSO = 1): 1.773
  TatRev/PolyA ratio (DMSO = 1): 0
Participant 1379
  LLTR HIV transcripts (DMSO = 100): 41.73
  Pol HIV transcripts (DMSO = 100): 110.74
  PolyA HIV transcripts (DMSO = 100): 43.19
  TAR HIV transcripts (DMSO = 100): 286.67
  LLTR/TAR ratio (DMSO = 1): 0.1456
  PolyA/LLTR ratio (DMSO = 1): 1.035
Participant 2027
  LLTR HIV transcripts (DMSO = 100): 76.52
  Pol HIV transcripts (DMSO = 100): 30.35
  PolyA HIV transcripts (DMSO = 100): 87.13
  TAR HIV transcripts (DMSO = 100): 211.63
  LLTR/TAR ratio (DMSO = 1): 0.3616
  PolyA/LLTR ratio (DMSO = 1): 1.1386
Participant 2750
  LLTR HIV transcripts (DMSO = 100): 134.54
  Pol HIV transcripts (DMSO = 100): 202.4
  PolyA HIV transcripts (DMSO = 100): 70.63
  TAR HIV transcripts (DMSO = 100): 206.7
  Tat-Rev HIV transcripts (DMSO = 100): 0
  LLTR/TAR ratio (DMSO = 1): 0.6509
  PolyA/LLTR ratio (DMSO = 1): 0.525
  TatRev/PolyA ratio (DMSO = 1): 0
[1]
  LLTR HIV transcripts (DMSO = 100): 170.71
  Pol HIV transcripts (DMSO = 100): 0
Participant 5557
  TAR HIV transcripts (DMSO = 100): 348.03
  LLTR/TAR ratio (DMSO = 1): 0.57

## CCc1cnn2c(NCc3ccc[n+]([O-])c3)cc(N3CCCC[C@H]3CCO)nc12 [dinaciclib]
24 hours
  5′ elongated HIV transcripts without activation compared to DMSO: did not reduce
  Completed HIV transcripts without activation compared to DMSO: did not reduce
  HIV splicing (TatRev/PolyA) without activation: severely reduce
Participant 156
  LLTR HIV transcripts (DMSO = 100): 121.36
  Pol HIV transcripts (DMSO = 100): 49.08
  PolyA HIV transcripts (DMSO = 100): 67.47
  Tat-Rev HIV transcripts (DMSO = 100): 0
Participant 163
  LLTR HIV transcripts (DMSO = 100): 142.94
  Pol HIV transcripts (DMSO = 100): 207.39
  PolyA HIV transcripts (DMSO = 100): 173.7
  Tat-Rev HIV transcripts (DMSO = 100): 0
Participant 1379
  LLTR HIV transcripts (DMSO = 100): 40.3
  Pol HIV transcripts (DMSO = 100): 0
  PolyA HIV transcripts (DMSO = 100): 20.95
  TAR HIV transcripts (DMSO = 100): 228.89
Participant 2027
  LLTR HIV transcripts (DMSO = 100): 82.61
  Pol HIV transcripts (DMSO = 100): 131.38
  PolyA HIV transcripts (DMSO = 100): 193.29
  TAR HIV transcripts (DMSO = 100): 248.84
Participant 2750
  LLTR HIV transcripts (DMSO = 100): 83.98
  Pol HIV transcripts (DMSO = 100): 102.74
  PolyA HIV transcripts (DMSO = 100): 91.99
  TAR HIV transcripts (DMSO = 100): 108.94
  Tat-Rev HIV transcripts (DMSO = 100): 0
[1]
  LLTR HIV transcripts (DMSO = 100): 59.59
  Pol HIV transcripts (DMSO = 100): 0
Participant 5557
  TAR HIV transcripts (DMSO = 100): 176.06
